Assay results reported in PubChem BioAssay AID330 (DTP/NCI, 2004).
Values joined by “and” are separate entries in the source; they are usually repeats but may differ in a detail not shown here. Equal values may be shown once. Toxic doses and inconclusive results are not listed. The calls were made as follows: active = survival T/C of 150% or more; inactive = T/C below 125% in these data.

System: P388 leukemia ip, CD2F1 mice, survival T/C
Assay: NCI In Vivo Anticancer Drug Screen. Data for tumor model P388 Leukemia (intraperitoneal) in CD2F1 (CDF1) mice
Settings: endpoint: median survival time, higher = longer survival
Outline: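 Mice carrying the transplanted tumor received test compound or vehicle. Survival was recorded in each group, and the value is the treated-group measurement divided by that of the vehicle-treated control group.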

[1] = dose: 50.0 mg/kg/injection, schedule: Q01DX009 (ip), vehicle: Klucel (hydroxypropylcellulose) (HPC)
[2] = dose: 100.0 mg/kg/injection, schedule: Q01DX009 (ip), vehicle: Klucel (hydroxypropylcellulose) (HPC)
[3] = dose: 200.0 mg/kg/injection, schedule: Q01DX009 (ip), vehicle: Klucel (hydroxypropylcellulose) (HPC)
[4] = dose: 25.0 mg/kg/injection, schedule: Q01DX005 (ip), vehicle: Klucel (hydroxypropylcellulose) (HPC)
[5] = dose: 100.0 mg/kg/injection, schedule: Q04DX003 (ip), vehicle: Klucel (hydroxypropylcellulose) (HPC)
[6] = dose: 200.0 mg/kg/injection, schedule: Q04DX003 (ip), vehicle: Klucel (hydroxypropylcellulose) (HPC)
[7] = dose: 60.0 mg/kg/injection, schedule: Q01DX005 (ip), vehicle: saline with Tween-80
[8] = dose: 120.0 mg/kg/injection, schedule: Q01DX005 (ip), vehicle: saline with Tween-80
[9] = dose: 240.0 mg/kg/injection, schedule: Q01DX005 (ip), vehicle: saline with Tween-80
[10] = dose: 50.0 mg/kg/injection, schedule: Q01DX005 (ip), vehicle: saline with Tween-80
[11] = dose: 100.0 mg/kg/injection, schedule: Q01DX005 (ip), vehicle: saline with Tween-80
[12] = dose: 200.0 mg/kg/injection, schedule: Q01DX005 (ip), vehicle: saline with Tween-80
[13] = dose: 50.0 mg/kg/injection, schedule: Q01DX009 (ip), vehicle: saline with Tween-80
[14] = dose: 100.0 mg/kg/injection, schedule: Q01DX009 (ip), vehicle: saline with Tween-80
[15] = dose: 100.0 mg/kg/injection, schedule: Q04DX002 (ip), vehicle: saline
[16] = dose: 200.0 mg/kg/injection, schedule: Q04DX002 (ip), vehicle: saline

Measured: T/C

COc1ccc2c(NCCCCCCCCNc3c4ccc(OC)cc4nc4cc([N+](=O)[O-])ccc34)c3ccc([N+](=O)[O-])cc3nc2c1
inactive: dose: 0.63 mg/kg/injection, schedule: Q01DX009 (ip), vehicle: other 88 % of control | dose: 1.25 mg/kg/injection, schedule: Q01DX009 (ip), vehicle: other 88 % of control | dose: 2.5 mg/kg/injection, schedule: Q01DX009 (ip), vehicle: other 119 % of control | dose: 5.0 mg/kg/injection, schedule: Q01DX009 (ip), vehicle: other 120 % of control | dose: 10.0 mg/kg/injection, schedule: Q01DX009 (ip), vehicle: other 121 % of control | dose: 20.0 mg/kg/injection, schedule: Q01DX009 (ip), vehicle: other 120 % of control

COc1cc(O)c(/C=N/Nc2ccc3ccccc3n2)c(OC)c1
inactive: dose: 100.0 mg/kg/injection, schedule: Q01DX001 (ip), vehicle: saline with Tween-80 91 % of control | dose: 200.0 mg/kg/injection, schedule: Q01DX001 (ip), vehicle: saline with Tween-80 104 % of control | dose: 400.0 mg/kg/injection, schedule: Q01DX001 (ip), vehicle: saline with Tween-80 89 % of control

CC(C)=C(C#N)NC(C)(C)C
inactive: dose: 12.5 mg/kg/injection, schedule: Q01DX009 (ip), vehicle: saline 101 % of control | dose: 25.0 mg/kg/injection, schedule: Q01DX009 (ip), vehicle: saline 100 % of control | dose: 50.0 mg/kg/injection, schedule: Q01DX009 (ip), vehicle: saline 98 % of control and 94 % of control

Cc1ccc(S(=O)(=O)OCCn2nc(C)c3c(C)cc(=O)oc32)cc1
inactive: [1] 103 % of control | [2] 107 % of control | [3] 100 % of control

CCOC(=O)/C(=C(\C)N)n1[nH]c(=O)n(-c2ccccc2)c1=O
inactive: [4] 98 % of control | dose: 50.0 mg/kg/injection, schedule: Q01DX005 (ip), vehicle: Klucel (hydroxypropylcellulose) (HPC) 100 % of control and 103 % of control | dose: 100.0 mg/kg/injection, schedule: Q01DX005 (ip), vehicle: Klucel (hydroxypropylcellulose) (HPC) 101 % of control and 96 % of control | dose: 200.0 mg/kg/injection, schedule: Q01DX005 (ip), vehicle: Klucel (hydroxypropylcellulose) (HPC) 98 % of control and 103 % of control

COc1ccc2c(n1)c(=NCCCCCCN=c1c3ccc(Cl)cc3n(O)c3ccc(OC)nc13)c1ccc(Cl)cc1n2O
inactive: [5] 116 % of control | [6] 100 % of control

Nc1cccc(SC2CC(=O)N(c3ccc(Cl)cc3C(=O)c3ccccc3)C2=O)c1 (configuration not stated)
inactive: [1] 105 % of control | [2] 99 % of control | [3] 89 % of control

COc1cc(/C=C/Cc2cc3c(cc2OCCO)OCO3)cc(OC)c1OC
inactive: [7] 94 % of control | [8] 92 % of control | [9] 101 % of control

CN(C)CCN1c2ccccc2Sc2ccc3ccccc3c21
inactive: dose: 50.0 mg/kg/injection, schedule: Q01DX005 (ip), vehicle: saline + Tween-80 + alcohol 104 % of control | dose: 100.0 mg/kg/injection, schedule: Q01DX005 (ip), vehicle: saline + Tween-80 + alcohol 107 % of control | dose: 200.0 mg/kg/injection, schedule: Q01DX005 (ip), vehicle: saline + Tween-80 + alcohol 107 % of control

CC(/C=N/Nc1ccccc1)=N\N=c1/scc(-c2ccc(C)cc2)n1C1CCCCC1
inactive: [10] 94 % of control | [11] 96 % of control | [12] 89 % of control

COc1cc(N=Nc2c(Cl)cc([N+](=O)[O-])cc2Cl)c(OC)cc1N=Nc1ccc(N)nc1N
inactive: [10] 99 % of control | [11] 100 % of control | [12] 101 % of control

CCCCCCC1N=C(N)N=C(N)N1c1ccc(Cl)cc1 (configuration not stated)
inactive: dose: 6.25 mg/kg/injection, schedule: Q01DX005 (ip), vehicle: Klucel (hydroxypropylcellulose) (HPC) 100 % of control | dose: 12.5 mg/kg/injection, schedule: Q01DX005 (ip), vehicle: Klucel (hydroxypropylcellulose) (HPC) 110 % of control | [4] 106 % of control

O=C(NC(O)C(Cl)(Cl)Cl)c1ccccc1 (configuration not stated)
inactive: dose: 12.5 mg/kg/injection, schedule: Q01DX005 (ip), vehicle: saline with Tween-80 95 % of control | dose: 25.0 mg/kg/injection, schedule: Q01DX005 (ip), vehicle: saline with Tween-80 102 % of control | [10] 100 % of control | [12] 96 % of control

CC[N+](C)(CC)CCOC(C)=O
inactive: dose: 6.25 mg/kg/injection, schedule: Q01DX001 (ip), vehicle: saline 100 % of control | dose: 12.5 mg/kg/injection, schedule: Q01DX001 (ip), vehicle: saline 100 % of control | dose: 25.0 mg/kg/injection, schedule: Q01DX001 (ip), vehicle: saline with Tween-80 101 % of control | dose: 25.0 mg/kg/injection, schedule: Q01DX001 (ip), vehicle: saline 98 % of control

CCOC=C=CCOCC
inactive: dose: 60.0 mg/kg/injection, schedule: Q01DX005 (ip), vehicle: saline 100 % of control | dose: 120.0 mg/kg/injection, schedule: Q01DX005 (ip), vehicle: saline 96 % of control | dose: 240.0 mg/kg/injection, schedule: Q01DX005 (ip), vehicle: saline 96 % of control

COc1nc(N)nc(Cl)n1
inactive: dose: 12.5 mg/kg/injection, schedule: Q01DX009 (ip), vehicle: saline with Tween-80 105 % of control | dose: 25.0 mg/kg/injection, schedule: Q01DX009 (ip), vehicle: saline with Tween-80 107 % of control | [13] 101 % of control | [14] 98 % of control

Cc1cc2nc(CC(=O)c3ccncc3)c(CC(=O)c3ccncc3)nc2cc1C
inactive: [7] 106 % of control | [8] 91 % of control | [9] 91 % of control

COc1ccc(CCNC(=O)C2CCCOC2C(Cl)Cl)cc1OC (configuration not stated)
inactive: [10] 97 % of control | [11] 101 % of control | [12] 93 % of control

CCCCNCC(=O)Nc1cc(NC(=O)CNCCCC)c(C)c(NC(=O)CNCCCC)c1
inactive: [10] 100 % of control | [11] 104 % of control | [12] 100 % of control

CCC(C)CN1CCc2c(c3c(c(OC)c2OC)CCC3)C1 (configuration not stated)
inactive: dose: 50.0 mg/kg/injection, schedule: Q04DX002 (ip), vehicle: saline 101 % of control | [15] 102 % of control | [16] 96 % of control

CC(O)CCOC(C[N+](=O)[O-])C(Cl)(Cl)Cl (configuration not stated)
inactive: [13] 101 % of control and 104 % of control | [14] 117 % of control | dose: 200.0 mg/kg/injection, schedule: Q01DX009 (ip), vehicle: saline with Tween-80 102 % of control and 120 % of control

CCOP(=S)(O/C(=C/Cl)c1cc(Cl)c(Cl)cc1Cl)c1ccccc1 (configuration not stated)
inactive: [1] 92 % of control | [2] 95 % of control | [3] 96 % of control

CCOC(=Nc1ccc([N+](=O)[O-])cc1)SC(c1ccccc1)(c1ccccc1)c1ccccc1
inactive: [10] 103 % of control | [11] 91 % of control | [12] 88 % of control

CC(=O)OCC(=O)[C@@]1(O)CC[C@H]2[C@@H]3CCC4=CC(=O)[C@H](C)C[C@]4(C)[C@@]3(F)[C@@H](O)C[C@@]21C
inactive: [5] 100 % of control | [6] 110 % of control

COC1CC(OC2CCC3(C)C(=CCC4C3C(OC(C)=O)C(OC(=O)CC(C)C)C3(C)C(C(C)=O)CCC43O)C2)OC(C)C1OC1CC(OC)C(OC2CC(OC)C(OC3OC(C)C(O)C(OC)C3O)C(C)O2)C(C)O1 (configuration not stated)
inactive: dose: 4.13 mg/kg/injection, schedule: Q01DX005 (ip), vehicle: Klucel (hydroxypropylcellulose) (HPC) 87 % of control | dose: 8.25 mg/kg/injection, schedule: Q01DX005 (ip), vehicle: Klucel (hydroxypropylcellulose) (HPC) 101 % of control

COc1cccc2c1C(=O)c1c(O)c3c(c(O)c1C2=O)C[C@@](O)(/C(C)=N\NC(N)=O)C[C@@H]3OC1CC(N)C(O)C(C)O1 (some centres not stated)
inactive: dose: 1.56 mg/kg/injection, schedule: Q01DX009 (ip), vehicle: saline 95 % of control

Cc1ccc(C)c(NC(=O)Nc2ccc(C(=O)O)cc2)c1
inactive: [1] 105 % of control | [2] 105 % of control | [3] 102 % of control

CCOP(=O)(O)OCC.[Sc]
inactive: dose: 100.0 mg/kg/injection, schedule: Q04DX002 (ip), vehicle: saline with Tween-80 93 % of control | dose: 200.0 mg/kg/injection, schedule: Q04DX002 (ip), vehicle: saline with Tween-80 101 % of control | dose: 400.0 mg/kg/injection, schedule: Q04DX002 (ip), vehicle: saline with Tween-80 104 % of control

COc1ccc2c(c1)no[n+]2[O-]
inactive: [15] 93 % of control | [16] 92 % of control | dose: 400.0 mg/kg/injection, schedule: Q04DX002 (ip), vehicle: saline 99 % of control

Nc1ccc([N+](=O)[O-])cc1C(=O)NCCc1ccncc1
inactive: [10] 95 % of control | [11] 97 % of control | [12] 99 % of control
